Measured values taken from article PMC5695821, “Pharmacological inhibition of RORγt suppresses the Th17 pathway and alleviates arthritis in vivo” (PLoS ONE, 2017).
pIC50: −log10 of the molar value.

Molecular target: T1, RORγt (Homo sapiens, UniProt P51449)
T1 construct: gene RORC; LBD, amino acids 264–518, His6-tagged
T1 sequence (P51449 264-518): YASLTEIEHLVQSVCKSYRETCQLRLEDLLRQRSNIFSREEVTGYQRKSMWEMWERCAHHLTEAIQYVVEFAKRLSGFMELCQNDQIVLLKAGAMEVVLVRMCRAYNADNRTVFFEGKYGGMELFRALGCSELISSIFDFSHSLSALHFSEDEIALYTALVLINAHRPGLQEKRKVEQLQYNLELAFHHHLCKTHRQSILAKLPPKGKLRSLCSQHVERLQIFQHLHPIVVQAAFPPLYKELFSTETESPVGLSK
Assay: TR-FRET displacement of RIP140 co-activator peptide from purified RORγt-LBD; supported by DSLS thermal shift (ΔTagg […] °C)
Assay type: binding

Molecule `Cc1ncc(C(=O)Nc2cn3ccnc3c(CN3CCN(C(=O)C4CCCC4)[C@@H](C)C3)c2C)cn1` [compound 1, (S)-N-(8-((4-(cyclopentanecarbonyl)-3-methylpiperazin-1-yl)methyl)-7-methylimidazo[1,2-a]pyridin-6-yl)-2-methylpyrimidine-5-carboxamide] has a pIC50 of 7.72.
